# According to patent US7115574B2, “System and method for support legacy operating system booting in a legacy-free system” (priority 2001, dated 2006):
# Assays:
# C. albicans [1] = test: C. albicans colony forming units (candidacidal activity); type: cell-based; conditions: FIG. 2
# Procedure: C. albicans (clinical isolate) was obtained from the collection of the Department of Microbiology, Ospedale Maggiore di Milano and maintained on Sabouraud's agar slants and periodically transferred to Sabouraud's agar plates and incubated for 48 hours at 28° C. To prepare a stationary growth phase yeast, a colony was taken from the agar plate and transferred into 30 ml Sabouraud-dextrose broth and incubated for 72 hours at 32° C. Cells were centrifuged and suspended in Hank's balanced salt solution (“HBSS”) to the desired concentration. Viability, determined by the exclusion of 0.01% methylene blue, remained >98%.
# C. albicans (1×10^6/ml in HBSS) was incubated in the presence or absence or α-MSH(1-13) (SEQ ID NO: 3) or (11-13) (SEQ ID NO: 1) at concentrations in the range of 10^−15 M to 10^−6 M for 2 hours at 37° C. Cells were then washed in cold distilled water and diluted with HBSS to a concentration of 100 organisms/ml. One-ml aliquots were dispensed on blood agar plates and incubated for 48 hours at 37° C. Organism viability was estimated from the number of colonies formed.
# In subsequent experiments using familiar procedures we compared activity of α-MSH(4-10) (SEQ ID NO: 10), (6-13) (SEQ ID NO: 2), (11-13) (SEQ ID NO: 1), ACTH(1-39) (SEQ ID NO: 9), (18-39) (SEQ ID NO: 11) and fluconazole, the latter an established antifungal agent. Melanocortin peptides and fluconazole were tested in concentrations of 10^−6 M to 10^−4 M. There were at least six replicates for each concentration of peptide. […]
# C. albicans [2] = test: Horse serum-induced germ tube formation (germination) of C. albicans; type: cell-based; conditions: 10^−6M, 60 minutes at 37° C. after horse serum induction
# Procedure: C. albicans from stationary phase cultures were washed twice with distilled water and suspended in HBSS to a final concentration of 2×10^6/ml. Hyphal growth was induced by addition of 10% inactivated horse serum (GIBCO/BRL, Great Britain) to yeast incubated for 45 minutes at 37° C. with continuous shaking. Horse serum was removed by washing cells twice with HBSS and incubation was continued for 60 minutes at 37° C. in the presence of α-MSH(1-13) (SEQ ID NO: 3), (6-13) (SEQ ID NO: 2) or (11-13) (SEQ ID NO: 1) at a concentration of 10^−6M with continuous shaking. The percentage of filamentous cells was evaluated under a light microscope with the aid of hemocytometer. Experiments were run in triplicate and at least 200 cells were scored. Photomicrographs were taken with a MC100 camera attached to an Axioskop Zeiss microscope.
# [3] = Lipton and Catania, Immunol. Today 1997; cited from earlier work
# [4] = test system: N9 clone of murine microglial cells; test: TNF-α, IL-6 and NO2− production by LPS+IFN-γ activated microglia; type: cell-based
# Procedure: See Delgado, R., Carlin, A., Alraghi, L., Demitri, M., Meda, L., Galimberti, D., Pierluigi, B., Lipton, J. M., Catania, A., Melanocortin Peptides Inhibit Production of Proinflammatory Cytokines and Nitric Oxide by Activated Microglia, 63 J. of Leukocyte Biol. 740 (1998). […] The N9 clone of murine microglial cells was obtained by immortalization of embryonic brain cultures with the 3RV retrovirus carrying an activated v-myconcogene. N9 cells were cultured in T-75-cm^2 culture flasks (Coming, Cambridge, Mass.) and maintained at 37° C. in a humidified incubator under 5% CO2 atmosphere in RPMI 1640 supplemented with 2 mM L-glutamine, 50 U/mL penicillin G, 50 μg/mL streptomycin sulfate (GIBCO-BBL, Paisley, UK), and 10% heat-inactivated fetal bovine serum (FBS, Hyclone Lab, Inc., Logan, Utah) until experiments were performed. Cells were used between the first and the tenth passage.
# Sub-confluent microglial cells were washed twice with phosphate-buffered saline (PBS) and incubated with trypsin 0.025% and ethylenediaminetetraacetate (EDTA) 0.02% without calcium and magnesium for 3 min. at 37° C. to detach the cells from the culture flask. Cells were then resuspended in medium and incubated in 24-well tissue-culture plates at a concentration of 2×10^5 cells/mL for 16 h in a humidified incubator (37° C., 5% CO2). Growth medium was removed and cell monolayers were stimulated with 10 ng/mL lipopolysaccharide (LPS, from Escherichia coli 055:B5, Sigma Chemical Co., St. Louis, Mo.) plus 1 U/ml, murine IFN-γ (Sigma). […] Although production of TNF-α and NO was reduced to even much lower concentrations of the peptides, concentrations in the micromolar range had the most profound and consistent inhibitory effects. […] Cell-free supernatants were harvested after 24 h incubation and assayed for TNF-α, IL-6 and NO2. Viability of cells was assessed by trypan blue exclusion for each experimental condition: it was consistently >98%. Dexamethasone (Sigma) and N-monomethyl-L-arginine (L-NMMA: 100 μM, Cayman Chemical, Ann Arbor, Mich.) were used as positive controls for TNF-α and NO inhibition, respectively. Tests were repeated in at least three independent experiments and assays were performed in triplicate.
# TNF-α bioactivity was measured in supernatants of cell cultures by standard cytotoxicity assay using L929 cells and recombinant human TNF-α (Sigma) as standard. The detection limit of the bioassay was 20 pg/mL. IL-6 was measured using a commercial murine enzyme-linked immunosorbent assay (ELISA: RPN 2714, Amersham, Little Chalfont, UK).
# NO is rapidly oxidized to nitrite in culture medium, and nitrite (NO2^−) concentration is an indicator of NO production. Cell-free culture supernatants were mixed with equal amounts of Griess reagent (1% sulfanilamide, 0.1% naphtylethylenediamide in 2.5% phosphoric acid) in wells of 96-well ELISA plates. Samples were incubated at room temperature for 10 min and absorbance was measured at 540 nm with the use of a microplate reader. Nitrite […] concentrations were calculated using a sodium nitrite standard curve.
# Effects of melanocortin peptides on cytokine and NO production were evaluated by repeated measures analysis of variance followed by Dunnet's test for specific comparisons. Probability values less than 0.05 were considered significant.
# [5] = test system: N9 clone of murine microglial cells; test: Northern blot of TNF-α and iNOS mRNA in activated microglia; type: cell-based; conditions: peptide prior to LPS and IFN-γ
# Procedure: Total cellular RNA was extracted from 10^6 adherent microglial cells plated in six-well tissue culture plates (Corning). Electrophoresis of RNA samples (10 μg/lane) was performed in 1% agarose/2.2 M formaldehyde gels and the gels subsequently blotted onto nylon filters by capillary action and baked for 2 h before prehybridization. The cDNA fragments encoding murine TNF-α and mouse macrophage iNOS were ^32P-labeled using the Ready-To-Go DNA Labeling Kit (Pharmacia, Uppsala, Sweden) before hybridization of nylon filters and autoradiography. Blots were subsequently rehybridized with human glyceraldehyde-3-phosphate dehydrogenase (G-3-PDH) cDNA probe as an internal control (Clontech Laboratories, Inc., Palo Alto, Calif.).
# [6] = microglia stimulated with LPS+IFN-γ for 24 hr, micromolar concentrations
substance,measurement,setting,value
"HFRWGKPV (Ac-HFRWGKPV-NH2) [α-MSH(6-13), octapeptide fragment of α-MSH]",relative potency in reducing C. albicans viability,C. albicans [1]; 10^−4M melanocortin peptides,most effective
same,reduction in the number of filamentous cells / inhibition of germ tube formation,C. albicans [2],approximately 50%
α-MSH(4-10): core α-MSH sequence (4-10) [reference compound],inhibition of CFU,C. albicans [1]; 10^−4M peptide as printed,approximately 50%
same,toxicity,[3],very low toxicity
"ACTH(1-24): melanocortin peptide ACTH(1-24) (Sigma) (SYSMEHFRWGKPVGKKRRPVKVYP; Designed polypeptide with anti-inflammatory, anti-microbial, anti-fungal, and anti-viral properties.) [reference compound]",concentration most effective at inhibiting cytokine formation,"[4]; LPS+IFN-γ stimulated microglia, 1-100 μM tested",10 to 25 µM
same,reduction of production of IL-6,[4]; [6],65%
same,reduction of production of NO2^−,[4]; [6],41%
same,reduction of production of TNF-α,[4]; [6],38%
same,transcription levels (mRNA) for TNF-α and iNOS,[5],inhibition of mRNA transcription
